Data set [1] can be described thus: Cytotoxicity against african green monkey CV1 cells assessed as zone of diameter at 0.01 ug/ml. It counts as cell-based. The note with it: chlorocebus aethiops, cv-1.
The nature of data set [2]: Cytotoxicity against BHK cells. It counts as cell-based, Mesocricetus auratus. The following applies: hamster.
For data set [3], the system named is L1210. Nature of the data set: Cytotoxicity against mouse L1210 cells. It counts as cell-based.
The subject of data set [4] is Human alphaherpesvirus 1. Nature of the data set: Antiviral activity against HSV1 in african green monkey CV1 cells at 0.01 ug/ml by plaque reduction method. In kind it is functional, organism-based. The following applies: CV-1.
A short description of data set [5]: Cytotoxicity against african green monkey CV1 cells assessed as zone of diameter at 0.1 ug/ml. It counts as cell-based. The note with it: chlorocebus aethiops, cv-1.
Data set [6] concerns Vesicular stomatitis virus. Nature of the data set: Antiviral activity against VSV in BHK cells at 0.01 ug/ml by plaque reduction method. In kind it is functional, organism-based.
The test system of data set [7] is Human alphaherpesvirus 1. Nature of the data set: Antiviral activity against HSV1 in african green monkey CV1 cells at 0.1 ug/ml by plaque reduction method. It counts as functional, organism-based. The note with it: CV-1. A general note: In a plaque reduction assay, fewer plaques than in the control indicate reduced infectivity or spread.
Data set [8] concerns Human alphaherpesvirus 1. Nature of the data set: Antiviral activity against HSV1 in african green monkey CV1 cells at 1 ug/ml by plaque reduction method. In kind it is functional, organism-based. The following applies: CV-1.

Structures are written as SMILES. Converted amounts (≈) assume the structure as drawn. The source made the active and inactive calls. No cut-off for these calls is given here.

For orientation: IC50 means the midpoint of a concentration-inhibition curve.

With `C=C1[C@@H](O)[C@@H]2O[C@]3(CC[C@H](CC[C@@H](C)[C@@H]4CC(C)=C[C@@]5(O[C@H](C[C@@](C)(O)C(=O)O)CC[C@H]5O)O4)O3)CC[C@H]2O[C@@H]1[C@@H](O)C[C@H](C)[C@H]1O[C@@]2(CC[C@H]1C)OCCC[C@H]2C`, the “inhibition zone (IZ)” value in data set [1] and in data set [5] was 0 mm each time. Further, the Activity entry in data set [2] was “Toxic”. Also, it took 3 ng/mL (≈ 3.65 nM) to reach half-maximal inhibition in data set [3] (IC50). Further, the outcome in data set [4] was inactive. The outcome in data set [6] was Active.

Turning to `C=C1[C@@H](O)[C@@H]2O[C@]3(CC[C@H](/C=C/[C@@H](C)[C@@H]4CC(C)=C[C@@]5(O[C@H](C[C@@](C)(O)C(=O)O)CC[C@H]5O)O4)O3)CC[C@H]2O[C@@H]1[C@@H](O)C[C@H](C)[C@H]1O[C@@]2(CC[C@H]1C)OCCC[C@H]2C` [DINOPHYSISTOXIN 1], the “inhibition zone (IZ)” value in data set [1] amounted to 0 mm. Moreover, the Activity result in data set [2] and in data set [5] was “Toxic” in each case. For the same compound, it took 2 ng/mL (≈ 2.44 nM) to reach half-maximal inhibition in data set [3] (IC50). Besides, the outcome in data set [7] and in data set [8] was Active. The result in data set [4] was inactive.

For `C=C1[C@@H](O)[C@@H]2O[C@]3(CC[C@H](/C=C/[C@@H](C)[C@@H]4CC(C)=C[C@@]5(O[C@H](C[C@@](C)(O)C(=O)O)CC[C@H]5O)O4)O3)CC[C@H]2O[C@@H]1[C@@H](O)C[C@H](C)[C@H]1O[C@@]2(CCCCO2)CC[C@H]1C` [OKADAIC ACID], the “inhibition zone (IZ)” value in data set [1] came out at 0 mm; in data set [5] it was 22 mm. Moreover, in data set [3], the 50% inhibitory concentration (IC50) amounted to 5 ng/mL (≈ 6.21 nM).

These data come from ChEMBL document CHEMBL1159251, “A new polyether acid from a cold water marine sponge, a Phakellia species” (J Nat Prod, 1995).
